From PMC3549034 (Cancer research, 2012)

Target: Aurora B (Homo sapiens, UniProt Q96GD4)
Assay type: biochemical

Aurora B, sequence (Q96GD4 whole entry): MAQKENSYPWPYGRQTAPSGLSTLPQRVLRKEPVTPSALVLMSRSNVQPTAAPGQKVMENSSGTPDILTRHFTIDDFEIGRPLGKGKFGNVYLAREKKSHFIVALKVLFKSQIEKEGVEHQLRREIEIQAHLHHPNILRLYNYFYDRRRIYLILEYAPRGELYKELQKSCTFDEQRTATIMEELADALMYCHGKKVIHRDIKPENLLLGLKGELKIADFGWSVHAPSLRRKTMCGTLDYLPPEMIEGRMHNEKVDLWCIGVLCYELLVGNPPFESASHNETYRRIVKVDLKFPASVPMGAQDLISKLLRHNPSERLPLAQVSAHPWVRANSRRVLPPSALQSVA

With `O=C(/C=C/c1ccc2c(c1)OCO2)/C=C1/C(=O)Nc2ccccc21` [HOI-07, (E)-3-((E)-4-(benzo[d][1,3]dioxol-5-yl)-2-oxobut-3-en-1-ylidene)indolin-2-one] as the molecule, how does the IC50 read?
The IC50 was ~100 nM.
